Experimental data reported in patent US20210330756A1, “Acetylation of Miro1” (University of South Carolina, priority 2020, published 2021).

How the values were obtained:
[1] = test system: adult dorsal root ganglion (DRG) neurons; test: Neurite length of dissociated adult DRG neurons cultured on laminin; assay type: cell-based, rat; details: 10 μM, 1 h
Method: HDAC6 inhibition increases growth cone size of sensory axons. Given our previous work showing that HDAC6 inhibition allows axons to grow on MAG and CSPG substrates (Rivieccio et al., 2009; Butler et al., 2010), we asked how inhibition of HDAC6 alters axon growth in cultures of adult dorsal root ganglion (DRG) neurons. […] (A) Quantification of neurite length for dissociated DRGs cultured on laminin with addition of HDAC6 inhibitor TubA (10 μm) versus vehicle control (DMSO) over 1 h is shown as average fold-change relative to vehicle±SEM (n≥95 neurons across three independent experiments; NS by one-way ANOVA with Bonferroni post hoc). (B and C) show representative DIC images of distal axons from DRG neurons cultured as in A are shown (B). 1-h TubA treatment appears to increase growth cone size. Analyses of growth cone area across multiple experiments show a significant increase in area after TubA treatment (C). Values are average fold-change±SEM (n≥26 neurons over at least three culture preparations; ***, P≤0.005 by one-way ANOVA with Bonferroni post hoc; scale bar=5 μm; 40×/1.3 NA objective used). […] Prominent HDAC6 signals are seen in distal axons and growth cones (arrows) regardless of TubA exposure. […]
NF-stained cultures were used for neurite growth analyses. […] The growth cone area was measured using ImageJ software from these annotated DIC images. […]

Ac-α-tubulin = test: Immunoblotting for Ac-α-tubulin in adult DRG neurons; assay type: cell-based, rat
Method: We tested for this specificity in the adult DRG neurons from above by immunoblotting. […] (A) Number of mitochondria in growth cones after exposing DRG cultures to 10 μM TubA versus vehicle (control) for 1 h is shown as average fold-change in number of mitochondria per growth cone±SEM (n=13 axons across three culture preparations; *, P≤0.05 by one-way ANOVA with Bonferroni post hoc analysis). (B) Representative EMs of Remak bundles (arrowheads) in naive Sciatic nerve and nerves after 2 h vehicle (DMSO) or TubA injection are shown. Arrows indicate mitochondria in the unmyelinated axons. Note that a Schwann cell nucleus (asterisk) is seen in the Remak bundle for DMSO image but not the other two micrographs (scale bar=3 μm). (C) Quantification of number of mitochondria per unmyelinated axon from EM images as in B is shown as average±SEM (n≥5; *****, P≤0.0001 by one-way ANOVA with Bonferroni post hoc analysis). (D-F) Quantification for indicated parameters for mitochondrial transport in sciatic nerve in vivo using tetramethylrhodamine, ethyl ester, perchlorate to visualize mitochondria is shown.
For immunoblotting, protein lysates or immunoprecipitates were denatured by boiling in Laemmli sample buffer, fractionated by SDS-PAGE, and transferred to nitrocellulose membranes. Blots were blocked for 1 h at room temperature with 5% nonfat dry milk in TBS with 0.1% Tween 20 (TBST). Primary antibodies diluted in 5% BSA in TBST were added to the membranes and incubated overnight at 4° C. with rocking. Primary antibodies consisted of rabbit anti-Myc (1:2,000; Cell Signaling; 71D10), rabbit anti-RHOT1 antibody (1:1,000; Aviva Systems Biology; ARP44817 P050), rabbit anti-HDAC6 antibody (1:2,000; Cell Signaling; 7558), rabbit anti-ERK1 (1:5,000; Abcam; ab32537), and affinity-purified custom rabbit anti-Miro1-AcK105 (1:2,500; Twiss laboratory, see above) antibodies. For the anti-Miro1-AcK105 antibody, preimmune and test-bleed sera were used at 1:1,000 dilutions to initially evaluate for specificity. […] Signals were detected using ECL Prime (GE Healthcare) after extensive washing.

CN1CCc2c(c3ccccc3n2Cc2ccc(C(=O)NO)cc2)C1 [TubA, tubastatin]
neurite length vs vehicle [1]: did not significantly affect neurite length
Ac-α-tubulin levels (Ac-α-tubulin; 1 μM): clear increase in Ac-α-tubulin levels
Ac-α-tubulin levels (Ac-α-tubulin; 10 μM): clear increase in Ac-α-tubulin levels
Ac-α-tubulin levels (Ac-α-tubulin; 100 μM): clear increase in Ac-α-tubulin levels
